From the supplement of paper PMC10307832

What was measured:
Test in all cases: relative viability (nuclei count vs DMSO), 5 days (fraction); higher = more cells survive
[1] = compound: Cc1ccc2nc(NCCN)c3ncc(C)n3c2c1 + CC(=O)c1c(C)c2cnc(Nc3ccc(N4CCNCC4)cn3)nc2n(C2CCCC2)c1=O [Palbociclib] (partner 0.5 µM)
Method in brief: (§1)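 Relative viability equals treated-well nuclei counts divided by vehicle-well nuclei counts. Counts came from 4× images of lung cancer cell lines grown in 1536-well plates for 5 days after pin-tool dosing on the day after seeding. Dosing used one drug alone or a fixed anchor-drug dose plus five library-drug doses (not always all listed) in √10 steps, and values are medians of duplicate plates.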

[2] = compound: Cc1ccc2nc(NCCN)c3ncc(C)n3c2c1 + CS(=O)(=O)CCNCc1ccc(-c2ccc3ncnc(Nc4ccc(OCc5cccc(F)c5)c(Cl)c4)c3c2)o1 [Lapatinib] (partner 2 µM)
Method in brief: as §1

Salubrinal + Luminespib = compound: O=C(/C=C/c1ccccc1)NC(NC(=S)Nc1cccc2cccnc12)C(Cl)(Cl)Cl [Salubrinal] + CCNC(=O)c1noc(-c2cc(C(C)C)c(O)cc2O)c1-c1ccc(CN2CCOCC2)cc1 [Luminespib] (partner 0.01 µM)
Method in brief: as §1

Salubrinal + Tozasertib = compound: O=C(/C=C/c1ccccc1)NC(NC(=S)Nc1cccc2cccnc12)C(Cl)(Cl)Cl [Salubrinal] + Cc1cc(Nc2cc(N3CCN(C)CC3)nc(Sc3ccc(NC(=O)C4CC4)cc3)n2)n[nH]1 [Tozasertib] (partner 0.1 µM)
Method in brief: as §1

**Q.** Which relative viability ([1]; first compound 0.04 µM) does the source give for UMC-11 here?
**A.** 0.34

**Q.** What about the relative viability ([1]; first compound 0.1265 µM) of the same cell line?
**A.** 0.322

**Q.** And the relative viability ([1]; first compound 0.4 µM)?
**A.** 0.322

**Q.** And the relative viability ([1]; first compound 1.265 µM)?
**A.** 0.317

**Q.** What about the relative viability ([1]; first compound 4 µM) of the same cell line?
**A.** 0.341

**Q.** What about the relative viability ([2]; first compound 0.04 µM) of the same cell line?
**A.** 1.03

**Q.** And the relative viability ([2]; first compound 0.1265 µM)?
**A.** 1.04

**Q.** And the relative viability ([2]; first compound 0.4 µM)?
**A.** 0.877

**Q.** And the relative viability ([2]; first compound 1.265 µM)?
**A.** 0.898

**Q.** What about the relative viability ([2]; first compound 4 µM) of the same cell line?
**A.** 0.91

**Q.** What about the relative viability (Salubrinal + Luminespib; first compound 0.08 µM) of the same cell line?
**A.** 1.06

**Q.** And the relative viability (Salubrinal + Luminespib; first compound 0.253 µM)?
**A.** 0.835

**Q.** And the relative viability (Salubrinal + Luminespib; first compound 0.8 µM)?
**A.** 1.14

**Q.** And the relative viability (Salubrinal + Luminespib; first compound 2.53 µM)?
**A.** 1.05

**Q.** What about the relative viability (Salubrinal + Luminespib; first compound 8 µM) of the same cell line?
**A.** 1.14

**Q.** What about the relative viability (Salubrinal + Tozasertib; first compound 0.08 µM) of the same cell line?
**A.** 0.208

**Q.** And the relative viability (Salubrinal + Tozasertib; first compound 0.253 µM)?
**A.** 0.225

**Q.** What about the relative viability (Salubrinal + Tozasertib; first compound 0.8 µM) of the same cell line?
**A.** 0.21

**Q.** What about the relative viability (Salubrinal + Tozasertib; first compound 2.53 µM) of the same cell line?
**A.** 0.186

**Q.** What about the relative viability (Salubrinal + Tozasertib; first compound 8 µM) of the same cell line?
**A.** 0.189
